Experimental data published in patent US20250018002A1, “Gap Junction Modulators and Their Use for the Treatment of Age-Related Macular Degeneration” (Breye Therapeutics APS, priority 2021, published 2025).
Entries after “also recorded” stand apart in the source; their conditions may differ.

What was measured:
[1] = test system: Human retinal pigment epithelial cells (ARPE-19); assay: Tight junction organization rate (TiJOR), anti-ZO-1 immunocytochemistry in stressed ARPE-19 monolayers; format: cell-based; details: danegaptide 100 nM, 24 h pre-treatment, then 48 h 30 mM glucose + sublethal tBHP; n=13-16
Procedure: For immunocytochemistry, ARPE-19 cells were grown to confluency in chamber slides for 72 h. Cells were then be pre-treated with Danegaptide (DGP; 100 nM) or vehicle control for 24 h. Subsequently, cells were challenged with a combination of sublethal oxidative stress (250 μM tert-butyl hydroperoxide; Millipore Sigma, St. Louis, MO) and hyperglycemia (30 mM glucose; Millipore Sigma, St. Louis, MO) for 48 h, in the continued presence of 100 nM DGP or vehicle.
Cells were labelled with anti-ZO-1 antibody (mouse anti-human 70-1, […], cat #339100, Invitrogen, Thermo Fisher Scientific, Carlsbad, CA) in antibody solution (3% normal goat serum, 1% bovine serum albumin, 0.5% Triton X-100, 0.05% sodium azide in 0.1 M Phosphate buffer pH 7.4) for 2 h at room temperature. […]
The tight junction organization rate (TiJOR) was calculated from confocal images, as described previously (Terryn et al., 2013). […]
Tight junction organization was assessed by immunocytochemistry using anti-zonula occludens 1 (ZO-1) immunostaining (bottom images of FIG. 2; that is, FIG. 2B), a major component of Tight Junctions that binds the cytoplasmic domain of both the Gap Junction transmembrane protein, Cx43, and the TJ transmembrane proteins, occludin(s) and claudin(s). The Tight Junction organization index (TiJOR) was calculated according to Terryn et al., 2013 and measures the degree of TJ dependent cell-cell coupling.

[2] = test system: STZ-induced DR in the Brown Norway rat; assay: SD-OCT retinal thickness in STZ-induced diabetic retinopathy; format: in vivo; details: week 9 after STZ
Procedure: (§1) Diabetes was induced in the Brown Norway rats (aged 9-10 weeks) by a single dose of streptozotocin (STZ; 65 mg/kg. Sigma) in 10 mM sodium citrate buffer, pH 4.5. After the STZ injection, rats were placed in their cages with ad libitum food and 10% (w/v) sucrose solution in tap water for 48 h. The next morning, 5% glucose (1 ml) was injected intraperitoneally or subcutaneously to all induced rats. Four days after the first STZ injection, the success of the induction was monitored by measuring the blood glucose levels from the saphenous vein. The induction of diabetes was considered successful when the blood glucose values measured by the rapidmeter were equal or higher than 16 mmol/l (288 mg/dl). Animals that were not diabetic based on this criterion 96 h after the first STZ injection received a second STZ injection.
(§2) The selected rats were monitored for blood glucose levels and animal health for 6 weeks, and then treated with weekly intravitreal (IVT) injections of vehicle or test compounds for three weeks for a total of 3× IVT eye injections per eye per animal.
(§3) For IVT treatment administration, the animals were anesthetized animals, placed under a stereoscope (Leica Microsystems), and a drop of iodine was applied on the cornea and allowed to spread evenly (Minims Povidone lodine 5%, Bausch & Lomb). A small incision in the […] exposing the vitreous chamber was performed using a 30 G needle near the limbus. A microsyringe with a 33G needle (Hamilton Bonaduz AG, Bonaduz) attached was used to inject the compounds into the intravitreal space. The test solution was injected into the intravitreal space for 10 s, the needle was kept in place for additional 30 s before being removed to avoid the reflux of the compound. Chloramphenicol ointment was applied after the injection (Oftan Chlora, Santen Oy). The different treatments were administered three times by bilateral intravitreal administration of a volume of 5 μl at weeks six, seven, and eight after STZ induction.
Anesthetized rats were imaged with SD-OCT (Envisu R2200. Bioptigen Inc./Leica Microsystems) retinal scan at week nine as shown in FIG. 5C. The scanned area covers a 2.4×2.4 mm^2 of the retina centred around the optic nerve. Each scan is composed of 100 B Scans each one composed of 1000 A Scans. SD-OCT was performed on both eyes at week nine after DR induction prior to sacrifice and sampling.
The retinal thickness at week nine was analyzed by a convolutional neural network based on U-net architecture using transfer learning approach. The resulting segmentation masks were used to measure the layer thickness in each pixel-width column, i.e. a-scan, resulting in 1000 measuring points for each layer per one b-scan. Only measuring points that passed the automatic quality control criteria set were used in the calculations. The thickness results were presented as SD-OCT measurements of the inner retina, including the nerve ganglion cell layer, inner plexiform and inner nuclear layers; and the outer retina, including the outer plexiform layer, outer nuclear layer, inner and outer segment, and RPE/choroid. […] See FIGS. 5, 7 and 8 for the results of SD-OCT.
SD-OCT scans were taken at week nine prior to sampling. The retinal scans were segmented, and the thickness was analyzed by a convolutional neural network algorithm.
Outer retinal thickness was quantified from SD-OCT images from 24 locations to generate a mean thickness of outer retinal thickness. Outliers were removed using the GROUT method (Q=1%), leading to the removal of a total of 5 outliers (naïve: 0, STZ+Vehicle: 1; STZ+AF564: 1; STZ+Danegaptide: 1; STZ+AF564+Danegaptide: 2).
SD-OCT scans were taken at week nine prior to sampling. Retinal scans were segmented and the thickness was analyzed by a convolutional neural network algorithm. Inner retinal thickness was analyzed by region (FIG. 8).

[3] = test system: STZ-induced DR in the Brown Norway rat; assay: Evans Blue retinal extravasation (vascular leakage) in STZ-induced diabetic retinopathy; format: in vivo; details: week 9 after STZ, 3 weekly IVT injections
Procedure: as §1, with “Animals that were not diabetic based on this criterion 96 h after the first STZ injection received a second STZ injection.” left out
The selected rats were monitored for blood glucose levels and animal health for 6 weeks, and then treated with weekly intravitreal (IVT) injections of vehicle or test compounds for three weeks for a total of 3× IVT eye injections per eye per animal. […]
Retinas were homogenized in formamide in a 1:10 ratio (w/v) and incubated overnight at +70°. […] Absorbance (λ=620 nm) of the samples was measured using a plate reader (Cytation 3, BioTek Instruments Inc., Winooski, VT) and the concentration of Evans Blue in each sample was calculated against a standard curve of Evans Blue and normalized to tissue weight. […]

[4] = test system: STZ-induced DR in the Brown Norway rat; assay: PAS staining of trypsin-digested retinal flat mounts: pericytes, pericyte ghosts, acellular capillaries; format: in vivo; details: week 9 after STZ
Procedure: as §1, §2
For IVT treatment administration, the animals were anesthetized animals, placed under a stereoscope (Leica Microsystems), and a drop of iodine was applied on the cornea and allowed to spread evenly (Minims Povidone lodine 5%, Bausch & Lomb). […]
Four to six individual images obtained from a central area, and from a peripheral area of the retinal vasculature were acquired using a Leica Thunder 3D Tissue Imager (Leica Microsystems). The number of acellular capillaries, the number of pericytes and the number of pericyte ghosts were manually counted by an investigator blinded to the experimental group assignment.
Vascular abnormalities and the effect of induction of DR by STZ induction were also assessed by quantification of acellular capillaries, pericytes and pericyte ghosts on trypsin-digested retinal wholemounts. For quantification, 4-15 individual images were quantified for each animal and the data from each image were included in the analysis.
Subsequently, number of pericyte ghosts was quantified.

Brown Norway rats = assay: Tolerability, macroscopic ophthalmic examinations after IVT injections; format: in vivo; details: bilateral IVT 5 μl, three weekly injections
Procedure: as §3
STZ-induced cataracts are common in this model and developed moderate severity by the end of the study (FIG. 4). All test articles were well-tolerated, and no signs of ocular toxicity were identified by macroscopic ophthalmic examinations. Test articles exerted no differential effects on cataract development (FIG. 4).

kidney epithelial cells = details: Squires et al., 2021; cited from earlier work
[5] = 3 weekly IVT injections, SD-OCT
[6] = 3 weekly IVT injections, average per group

Structure (SMILES): NCC(=O)N1C[C@H](NC(=O)c2ccccc2)C[C@H]1C(=O)O [Danegaptide, (2S,4R)-1-(2-aminoacetyl)-4-benzoylamino-pyrrolidine-2-carboxylic acid]
- Protection against loss of Tight Junction organization (TiJOR) [1]: completely protected; also recorded: partial protection
- Total retinal thickness, IN [2, 5]: 206 ± 1.8 μm
- Total retinal thickness, IT [2, 5]: 217 ± 1.6 μm
- Total retinal thickness, SN [2, 5]: 205 ± 1.9 μm
- Total retinal thickness, ST [2, 5]: 210 ± 2.6 μm
- Total retinal thickness, Whole Retina [2, 5]: 212 ± 2.2 μm
- Outer retinal thickness, IN (inferior-nasal) [2, 6]: 121.17 μm
- Outer retinal thickness, IT (inferior-temporal) [2, 6]: 123.61 μm
- Outer retinal thickness, SN (superior-nasal) [2, 6]: 117.36 μm
- Outer retinal thickness, ST (superior-temporal) [2, 6]: 118.14 μm
- Effect on inner retinal thickness ([2]; regional analysis ST, SN, IT, IN): No biologically relevant effects
- Outer retinal thickness (mean) ([2]; weekly IVT injections at weeks 6, 7, 8, mean±S.E.M., STZ+Vehicle 123.8±0.9, naïve 119.8±0.5): 119.7±0.8 μm
- Reduction of EB extravasation vs STZ+Vehicle [3]: 68.9%
- Evans Blue (EB) extravasation, % of STZ+Vehicle ([3]; normalized to STZ+Vehicle, mean±S.E.M.): 31.1±5.3%
- Effect on number of pericyte ghosts vs STZ+Vehicle ([4]; One-Way ANOVA, Dunnett's test): statistically significant reduction
- Acellular capillaries (number) ([4]; count per image, STZ+Vehicle 22 ± 1): 20 ± 1
- Pericytes (sum of the number of pericytes and pericyte ghosts) ([4]; count per image, STZ+Vehicle 52 ± 2): 49 ± 2
- Tolerability / ocular toxicity (Brown Norway rats): well tolerated
- ATP leakage from kidney epithelial cells (kidney epithelial cells): can reduce ATP leakage
